Source: patent US20030049249A1 (priority 2001, published 2003)

Legend:
[1] = test system: N2a/Bos2 cells exposed to 0.1% scrapie-infected brain homogenate (RML prions); assay type: cell-based, mouse
[2] = test system: chronically scrapie-infected N2a/Bos2 cells; assay type: cell-based, mouse

For “phosphatidylinositol-specific phospholipase C [PIPLC]”, the “effect on appearance of PrPSc” value ([1]; PIPLC 0.25, 0.5, 1 and 2 units/ml before and/or during exposure of a susceptible cell to prions) was “prevents appearance of PrPSc”, the “concentration that sufficed to prevent appearance of PrPSc” value ([1]; added 2 h before and during 3-day exposure to 0.1% scrapie-infected brain homogenate, cell blot after 14 days in absence of PIPLC) was 0.25 units/ml and the “effect on PrPSc in chronically infected cells” value [2] was “causes rapid loss of PrPSc”.
